Data taken from paper PMC6727418, “Cyanidin-3-rutinoside acts as a natural inhibitor of intestinal lipid digestion and absorption” (BMC Complementary and Alternative Medicine, 2019).

Columns and labels:
[1] = biological target: T1, porcine pancreatic cholesterol esterase (Sus scrofa, UniProt A0A286ZKB1); test: colorimetric p-NPB hydrolysis assay, percent inhibition at […]; assay type: biochemical; settings: read-out: % inhibition at 1 mM
T1 construct: gene CEL
T1 sequence (A0A286ZKB1 96-682): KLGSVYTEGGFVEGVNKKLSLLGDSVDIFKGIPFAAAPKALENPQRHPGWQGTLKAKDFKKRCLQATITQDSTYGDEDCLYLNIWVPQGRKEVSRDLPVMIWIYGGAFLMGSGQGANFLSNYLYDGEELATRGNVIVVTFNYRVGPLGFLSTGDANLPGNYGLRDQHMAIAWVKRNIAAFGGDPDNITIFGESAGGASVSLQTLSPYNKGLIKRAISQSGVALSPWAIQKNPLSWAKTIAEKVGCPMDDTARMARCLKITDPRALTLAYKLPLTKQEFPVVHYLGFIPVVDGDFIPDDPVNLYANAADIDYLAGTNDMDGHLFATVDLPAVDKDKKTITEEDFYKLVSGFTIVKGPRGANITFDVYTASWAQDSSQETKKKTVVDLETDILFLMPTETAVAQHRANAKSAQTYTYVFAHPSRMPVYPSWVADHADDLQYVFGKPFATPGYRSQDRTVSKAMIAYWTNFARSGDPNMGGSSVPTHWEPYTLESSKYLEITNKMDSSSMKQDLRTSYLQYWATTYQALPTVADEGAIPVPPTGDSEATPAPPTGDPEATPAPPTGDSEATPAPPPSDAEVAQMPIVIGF

[2] = biological target: T2, Porcine pancreatic lipase (Sus scrofa, UniProt P00591); test: fluorometric 4-MUO hydrolysis assay; Lineweaver-Burk kinetics (Ki […], Ki'[…]); assay type: biochemical
T2 construct: gene PNLIP
T2 sequence (P00591 1-450): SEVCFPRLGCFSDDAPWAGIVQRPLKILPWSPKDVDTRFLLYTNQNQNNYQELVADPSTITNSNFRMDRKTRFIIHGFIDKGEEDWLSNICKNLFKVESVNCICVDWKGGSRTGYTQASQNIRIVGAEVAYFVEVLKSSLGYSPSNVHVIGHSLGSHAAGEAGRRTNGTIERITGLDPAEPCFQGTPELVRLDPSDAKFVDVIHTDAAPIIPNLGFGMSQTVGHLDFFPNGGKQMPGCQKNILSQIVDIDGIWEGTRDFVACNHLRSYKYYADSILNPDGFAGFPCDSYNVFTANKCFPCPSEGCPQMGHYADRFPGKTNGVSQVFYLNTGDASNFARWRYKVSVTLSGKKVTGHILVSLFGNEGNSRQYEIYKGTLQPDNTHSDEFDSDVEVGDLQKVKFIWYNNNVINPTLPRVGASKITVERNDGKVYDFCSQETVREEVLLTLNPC

## O=C(O)c1cc(O)c(O)c(O)c1 [gallic acid]
[1]
  inhibition at 1000 µM: ~39%

## C[C@@H]1O[C@@H](OC[C@H]2O[C@@H](Oc3cc4c(O)cc(O)cc4[o+]c3-c3ccc(O)c(O)c3)[C@H](O)[C@@H](O)[C@@H]2O)[C@H](O)[C@H](O)[C@H]1O [C3R, Cyanidin-3-rutinoside]
[2]
  IC50: 59.4 ± 1.41 µM
